According to publication PMC4774972, “Activity and Predicted Nephrotoxicity of Synthetic Antibiotics Based on Polymyxin B” (Journal of Medicinal Chemistry, 2016):
≈ marks a conversion by molar mass, not a printed value. Numbered stars: 1 amine (or outer) side, 2 acyl side, 3 side chain; on linkers, the order of the positions; unused ones are H or OH. Bridge positions count the residues as written; N and C are the ends. Square brackets hold non-standard residues; d marks the D form. Peptide text beside a SMILES is read from it. * marks the point of attachment. Benzoyl(4-OPh) = O=C(c1ccc(Oc2ccccc2)cc1)*; Benzoyl(4-Ph) = O=C(c1ccc(-c2ccccc2)cc1)*; dGly(nOct) = CCCCCCCC[C@@H](N)C(=O)O; X1 = c1ccc(-c2ccc(N*)cc2)cc1; Octanoyl = CCCCCCCC(=O)*; Dab = NCC[C@H](N)C(=O)O; CO = O=C([*:1])[*:2]

Key:
HepG2 = conditions: CC50 HepG2 (µM)
[1] = test system: K. pneumoniae CI 138-16357-20362, PmxR; conditions: MIC K. pneumoniae CI 138-16357-20362, PmxR (µg/mL)
E. coli ATCC 25922 = conditions: MIC E. coli ATCC 25922 (µg/mL)
[2] = test system: A. baumannii CI Ptyela 100734512:2, PmxR; conditions: MIC A. baumannii CI Ptyela 100734512:2, PmxR (µg/mL)
[3] = test system: P. aeruginosa PA9704, PmxR; conditions: MIC P. aeruginosa PA9704, PmxR (µg/mL)
[4] = test system: S. aureus ATCC 25923, MSSA; conditions: MIC S. aureus ATCC 25923, MSSA (µg/mL)
P. aeruginosa ATCC 27853 = conditions: MIC P. aeruginosa ATCC 27853 (µg/mL)
[5] = test system: K. pneumoniae CI Koprana 100650661:1, PmxR; conditions: MIC K. pneumoniae CI Koprana 100650661:1, PmxR (µg/mL)
K. pneumoniae ATCC 13883 = conditions: MIC K. pneumoniae ATCC 13883 (µg/mL)
[6] = test system: primary human renal proximal tubule epithelial (hPT) cells; assay: Nephrotoxicity assay, LDH release; format: cell-based; conditions: for release of LDH: at 100 μg/mL in the primary kidney cells; for LDH release CC50: primary human kidney cells
Text: (§1) Primary human renal proximal tubule epithelial (hPT) cells were isolated and used for in vitro prediction of drug-induced nephrotoxicity[63],[64],[69] by measuring the release of metabolism enzymes, LDH and GGT, as previously described.[70]

[7] = test system: K. pneumoniae CI 138-16357-20362, PmxR; assay: microbe, parasite or virus in culture; format: cell-based, Klebsiella pneumoniae
Procedure: (§2) Bacteria were either obtained from American Type Culture Collection (ATCC; Manassas, VA, USA) or independent academic clinical isolate collections, as listed in Table S2. Bacteria were cultured in nutrient broth (NB; Bacto Laboratories, catalog no. 234000) or Muller Hinton broth (MHB; Bacto Laboratories, catalog no. 211443) at 37 °C overnight with shaking (∼180 rpm). A sample of each culture was then diluted 50-fold in fresh MHB and incubated at 37 °C for 1.5–3 h with shaking (∼180 rpm). Compound stock solutions were prepared as 0.64 or 2.56 mg/mL in water. The compounds, at twice the final desired concentration, were serially diluted 2-fold across the wells of 96-well plates (Polystyrene, Corning, catalogue No. 3370). Mid log phase bacterial cultures (after 1.5–3 h incubation) were diluted to a final concentration of 5 × 10^5 colony forming units (CFU)/mL, and 50 μL was added to each well giving a final compound concentration range of 32 μg/mL to 0.015 μg/mL (128–0.06 μg/mL for colistin and polymyxin B against the polymyxin resistant clinical isolates). MICs were determined visually after 18 h of incubation at 37 °C, with the MIC defined as the lowest compound concentration at which no bacterial growth was visible.
(§3) Table S2. Bacterial strains used for Minimum Inhibitory Concentration (MIC) […]
(§4) Organism Strain Strain description Strain Source
(§5) Escherichia coli ATCC 25922 FDA strain Seattle 1946 ATCC
(§6) Klebsiella pneumoniae ATCC 13883 Control strain ATCC
(§7) Klebsiella pneumoniae ATCC 700603 Multi-drug resistant ATCC
(§8) Klebsiella pneumoniae BAA-2146 Metallo-beta-lactamase- ATCC
(§9) Acinetobacter baumannii ATCC 19606 Type strain ATCC
(§10) Pseudomonas aeruginosa ATCC 27853 Type strain ATCC
(§11) Pseudomonas aeruginosa FADDI-PA070 Clinical isolate, Nation and Li labs, polymyxin resistant Monash University
(§12) Clinical isolate, Wang Hengzhuang, Pseudomonas aeruginosa PA9704 polymyxin resistant University Hospital of […]
(§13) Ptyela Clinical isolate, Ilias Karaiskos and Acinetobacter baumannii Carbapenem & Helen Giamarellou
(§14) Clinical isolate, Medicine, Hygeia
(§15) Klebsiella pneumoniae Koprana Carbapenem, & General Hospital, […]
(§16) Clinical isolate, (Instituto Dante […]
(§17) polymyxin resistant Cardiologia, São […]

[8] = test system: K. pneumoniae CI Koprana 100650661:1, PmxR; assay: microbe, parasite or virus in culture; format: cell-based, Klebsiella pneumoniae; conditions: carbapenem & polymyxin resistant clinical isolate; MHB, 5 × 10^5 CFU/mL, 18 h at 37 °C
Procedure: as §2, §3, §4, §5, §6, §7, §8, §9, §10, §11, §12, §13, §14, §15, §16, §17

[9] = test system: primary human renal proximal tubule epithelial (hPT) cells; assay: Nephrotoxicity assay, GGT release; format: cell-based; conditions: for release of GGT: at 100 μg/mL in the primary kidney cells; for GGT release CC50: primary human kidney cells
Text: as §1

[10] = carbapenem & polymyxin resistant clinical isolate, MHB, 5 × 10^5 CFU/mL, 18 h at 37 °C

SMILES	CC50 (HepG2)	MIC [1]	MIC (E. coli ATCC 25922)	MIC [2]	MIC [3]	MIC [4]	MIC (P. aeruginosa ATCC 27853)	MIC [5]	MIC (K. pneumoniae ATCC 13883)	release of LDH [6]	LDH release CC50 [6]	MIC K. pneumoniae CI 138-16357-20362, PmxR [7, 10]	MIC K. pneumoniae CI Koprana 100650661:1, PmxR [8]	release of GGT [9]	GGT release CC50 [9]	MIC K. pneumoniae CI 138-16357-20362, PmxR ([7]; CI 138-16357-20362, PmxR, 18 h)
CCCCCCCC[C@H]1NC(=O)[C@H](CCN)NC(=O)[C@@H](NC(=O)[C@H](CCN)NC(=O)[C@@H](NC(=O)[C@H](CCN)NC(=O)CCCCCCC)[C@@H](C)O)CCNC(=O)[C@H]([C@@H](C)O)NC(=O)[C@H](CCN)NC(=O)[C@H](CCN)NC(=O)[C@H](CC(C)C)NC1=O (Octanoyl-[Dab]T[Dab][Dab][Dab][dGly(nOct)]L[Dab][Dab]T; lactam 4-C)	254 µM	16 µg/mL (≈ 13.2 µM)	2 µg/mL (≈ 1.65 µM)	16 µg/mL (≈ 13.2 µM)	8 µg/mL (≈ 6.6 µM)	16 µg/mL (≈ 13.2 µM)	2 µg/mL (≈ 1.65 µM)	16 µg/mL (≈ 13.2 µM)	2 µg/mL (≈ 1.65 µM)	–	–	–	–	–	–	–
CC(C)C[C@@H]1NC(=O)[C@@H](Cc2ccccc2)NC(=O)[C@H](CCN)NC(=O)[C@@H](NC(=O)[C@H](CCN)NC(=O)[C@@H](NC(=O)[C@H](CCN)NC(=O)c2ccc(-c3ccccc3)cc2)[C@@H](C)O)CCNC(=O)[C@H]([C@@H](C)O)NC(=O)[C@H](CCN)NC(=O)[C@H](CCN)NC1=O [Compound 10] ({Benzoyl(4-Ph)}-[Dab]T[Dab][Dab][Dab][dF]L[Dab][Dab]T; lactam 4-C)	298 µM	> 32 µg/mL	–	–	> 32 µg/mL	> 32 µg/mL	–	> 32 µg/mL	–	almost no release	>128 µg/mL	>32 µg/mL	>32 µg/mL	almost no release	>128 µg/mL	–
CC(C)C[C@@H]1NC(=O)[C@@H](Cc2ccccc2)NC(=O)[C@H](CCN)NC(=O)[C@@H](NC(=O)[C@H](CCN)NC(=O)[C@@H](NC(=O)[C@H](CCN)NC(=O)c2ccc(Oc3ccccc3)cc2)[C@@H](C)O)CCNC(=O)[C@H]([C@@H](C)O)NC(=O)[C@H](CCN)NC(=O)[C@H](CCN)NC1=O [Compound 14] ({Benzoyl(4-OPh)}-[Dab]T[Dab][Dab][Dab][dF]L[Dab][Dab]T; lactam 4-C)	287 µM	> 32 µg/mL	–	–	–	> 32 µg/mL	–	> 32 µg/mL	–	almost no release	>128 µg/mL	–	>32 µg/mL	almost no release	>128 µg/mL	>32 µg/mL
CC(C)C[C@@H]1NC(=O)[C@@H](Cc2ccccc2)NC(=O)[C@H](CCN)NC(=O)[C@@H](NC(=O)[C@H](CCN)NC(=O)[C@@H](NC(=O)[C@H](CCN)NC(=O)Nc2ccc(-c3ccccc3)cc2)[C@@H](C)O)CCNC(=O)[C@H]([C@@H](C)O)NC(=O)[C@H](CCN)NC(=O)[C@H](CCN)NC1=O [Compound 15] ({X1-CO}-[Dab]T[Dab][Dab][Dab][dF]L[Dab][Dab]T; lactam 4-C)	316 µM	> 32 µg/mL	–	–	–	–	–	–	–	–	>128 µg/mL	>32 µg/mL	–	–	>128 µg/mL	–
